# Reference: PMC9578392, “Safety, Tolerability, and Pharmacokinetics of the Novel Antiviral Agent Ensitrelvir Fumaric Acid, a SARS-CoV-2 3CL Protease Inhibitor, in Healthy Adults” (Antimicrobial Agents and Chemotherapy, 2022)
# Read-outs that look alike come from different tables or passages of the source.
# Assay: Single ascending oral dose pharmacokinetics (part 1, plasma and urine, fasted)
# Type: in vivo, human
# Details: for Feu0-144: urine; for AUC(0-inf) / AUC(0-t) / Cmax / MRT / Vd/F / half-life / Tmax / CL renal: human, oral; for AUC(0-inf) / AUC(0-t) / Cmax / MRT / Vd/F / half-life / Tmax: plasma; for Vd/F: read-out: Vz/F; for CL renal: urine and plasma
# [1] = cohort/dose A/20 mg, single dose, geometric mean (%CV)
# [2] = cohort/dose B/70 mg, single dose, geometric mean (%CV)
# [3] = cohort/dose C/250 mg, single dose, geometric mean (%CV)
# [4] = cohort/dose D/500 mg, single dose, geometric mean (%CV)
# [5] = cohort/dose E/1000 mg, single dose, geometric mean (%CV)
# [6] = cohort/dose J/2000 mg, single dose, geometric mean (%CV)
smiles,measurement,setting,value
"Cn1cnc(Cn2c(=O)[nH]/c(=N\c3cc4cn(C)nc4cc3Cl)n(Cc3cc(F)c(F)cc3F)c2=O)n1 [Ensitrelvir, ensitrelvir fumaric acid]",CL/F,[1],0.219 (24.3) L/h
same,Feu0-144,[1],12.9 (14.6) %
same,CL/F,[2],0.241 (15.7) L/h
same,Feu0-144,[2],14.7 (27.4) %
same,CL/F,[3],0.274 (16.2) L/h
same,Feu0-144,[3],16.0 (16.6) %
same,CL/F,[4],0.252 (16.1) L/h
same,Feu0-144,[4],21.8 (15.4) %
same,CL/F,[5],0.297 (35.5) L/h
same,Feu0-144,[5],19.4 (29.5) %
same,CL/F,[6],0.315 (22.2) L/h
same,AUC(0-inf),[1],91.4 µg·h/mL
same,AUC(0-t),[1],82 µg·h/mL
same,Cmax,[1],1700 ng/mL
same,MRT,[1],61.8 h
same,Vd/F,[1],13.5 L
same,half-life,"cohort/dose A/20 mg, single dose, geometric mean (%CV), read-out: t1/2,z (converted)",42.6 h
same,Tmax,"cohort/dose A/20 mg, single dose, median (min, max), read-out: Tmax",2.5 h
same,AUC(0-inf),[2],291 µg·h/mL
same,AUC(0-t),[2],289 µg·h/mL
same,Cmax,[2],5200 ng/mL
same,MRT,[2],67.3 h
same,Vd/F,[2],15.9 L
same,half-life,"cohort/dose B/70 mg, single dose, geometric mean (%CV), read-out: t1/2,z (converted)",45.7 h
same,Tmax,"cohort/dose B/70 mg, single dose, median (min, max), read-out: Tmax",1.5 h
same,AUC(0-inf),[3],914 µg·h/mL
same,AUC(0-t),[3],907 µg·h/mL
same,Cmax,[3],15200 ng/mL
same,MRT,[3],73.4 h
same,Vd/F,[3],17 L
same,half-life,"cohort/dose C/250 mg, single dose, geometric mean (%CV), read-out: t1/2,z (converted)",43.1 h
same,Tmax,"cohort/dose C/250 mg, single dose, median (min, max), read-out: Tmax",2.5 h
same,AUC(0-inf),[4],1990 µg·h/mL
same,AUC(0-t),[4],1980 µg·h/mL
same,Cmax,[4],32600 ng/mL
same,MRT,[4],68.2 h
same,Vd/F,[4],15.3 L
same,half-life,"cohort/dose D/500 mg, single dose, geometric mean (%CV), read-out: t1/2,z (converted)",42.2 h
same,Tmax,"cohort/dose D/500 mg, single dose, median (min, max), read-out: Tmax",2 h
same,AUC(0-inf),[5],3370 µg·h/mL
same,AUC(0-t),[5],3340 µg·h/mL
same,Cmax,[5],63800 ng/mL
same,MRT,[5],70.3 h
same,Vd/F,[5],20.6 L
same,half-life,"cohort/dose E/1000 mg, single dose, geometric mean (%CV), read-out: t1/2,z (converted)",48.1 h
same,Tmax,"cohort/dose E/1000 mg, single dose, median (min, max), read-out: Tmax",2.75 h
same,AUC(0-inf),[6],6350 µg·h/mL
same,AUC(0-t),[6],6310 µg·h/mL
same,Cmax,[6],96900 ng/mL
same,MRT,[6],67.4 h
same,Vd/F,[6],19.6 L
same,half-life,"cohort/dose J/2000 mg, single dose, geometric mean (%CV), read-out: t1/2,z (converted)",43.1 h
same,Tmax,"cohort/dose J/2000 mg, single dose, median (min, max), read-out: Tmax",4 h
same,half-life,"single dose 20 to 2,000 mg, range across dose groups, read-out: geometric mean terminal elimination half-life (t1/2,z)",42.2 to 48.1 h
same,Tmax,"single dose 20 to 2,000 mg, range across dose groups, read-out: median time to maximum plasma concentration (Tmax)",1.5 to 4 h
same,CL renal,[1],0.523 mL/min
same,CL renal,[2],0.668 mL/min
same,CL renal,[3],0.845 mL/min
same,CL renal,[4],1.04 mL/min
same,CL renal,[5],1.11 mL/min
